Assay results reported in US20040261578A1, “Stable self-organizing plant-organism systems for remediating polluted soils and waters” (priority 2003, published 2004).

Legend:
[1] = system: maize inbred line Mo17; test: Shoot length of Mo17 after soil treatments and T22 seed treatment, Arkport sandy loam field soil; type: in vivo; conditions: no seed treatment, soil drenched with mefenoxam, seven days after planting
Protocol: Ten-day assays were conducted in larger boxes (5×11×11 cm). Four or five seeds, either treated or not treated with T22, were planted in each box and plants were grown for various lengths of time with 12 hr diurnal fluorescent lighting and were watered as needed. In some experiments, soils were autoclaved to examine maize growth responses in the absence of natural soil pathogens. In addition, some soils were drenched with mefenoxam ((R)-2-[2,6-dimethylphenyl)-methoxyacetylamino]-propionic acid methyl ester]; Subdue MAXX, Novartis, Research Triangle, NC) according to the manufacturer's directions.

[2] = system: wheat seedlings; conditions: 15000 ppm Prussian blue; 4.5 cm in its absence
Description: Ten wheat seeds were germinated in petri dishes containing approximately 50 g of grit sand. Each dish was moistened with plant nutrient solution in the presence or absence of 15000 ppm metallocyanide Prussian blue.

SMILES	Shoot length [1] [ab xy mm]	Mean root length of the wheat seedlings [2] [cm]
COCC(=O)N(c1c(C)cccc1C)[C@H](C)C(=O)OC [mefenoxam]	63	–
[C-]#N.[C-]#N.[C-]#N.[C-]#N.[C-]#N.[C-]#N.[C-]#N.[C-]#N.[C-]#N.[C-]#N.[C-]#N.[C-]#N.[C-]#N.[C-]#N.[C-]#N.[C-]#N.[C-]#N.[C-]#N.[Fe+2].[Fe+2].[Fe+2].[Fe+3].[Fe+3].[Fe+3].[Fe+3] [Prussian blue, Fe4 [Fe(CN)6]3]	–	2.0
